From US20140155384A1, “COMPOUNDS AND METHODS OF TREATING DIABETES” (Medivation Technologies, Inc., priority 2011, published 2014)

Biological target: T1, human recombinant adrenergic α2B receptor (Homo sapiens, UniProt P18089)
T1 construct: expressed in transfected cells; host or cells: CHO-K1
T1 sequence (P18089 1-450): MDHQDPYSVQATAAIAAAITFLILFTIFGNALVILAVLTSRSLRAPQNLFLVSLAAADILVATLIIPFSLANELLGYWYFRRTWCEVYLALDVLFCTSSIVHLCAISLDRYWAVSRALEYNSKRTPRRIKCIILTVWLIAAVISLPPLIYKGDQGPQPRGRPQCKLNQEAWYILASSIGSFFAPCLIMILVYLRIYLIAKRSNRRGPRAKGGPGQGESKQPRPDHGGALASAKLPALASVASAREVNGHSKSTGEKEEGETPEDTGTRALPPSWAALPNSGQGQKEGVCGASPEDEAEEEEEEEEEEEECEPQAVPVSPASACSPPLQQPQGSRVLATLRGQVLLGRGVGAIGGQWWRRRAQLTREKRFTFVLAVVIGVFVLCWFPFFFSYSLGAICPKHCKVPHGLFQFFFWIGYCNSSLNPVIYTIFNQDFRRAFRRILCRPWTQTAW
Assay: Radioligand binding, adrenergic α2B receptor ([3H]Rauwolscine)
Conditions: CHO-K1 cells; for inhibition at 0.03 µM / inhibition at 0.1 µM: read-out: Percentage inhibition of ligand binding, Adrenergic α2B
Method in brief: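 Percent inhibition of specific [3H]Rauwolscine (2.5 nM) binding, compounds at ≤1 μM, 1% DMSO vehicle, 10 μM prazosin defining nonspecific. Receptor: human α2B expressed in CHO-K1 cells, 60 min incubation at 25 °C in Tris-HCl pH 7.4 buffer (MgCl2, EDTA, BSA); filtered, washed, counted.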

SMILES	Percentage inhibition of ligand binding, Adrenergic α2B (0.03 μM compound)	inhibition at 0.03 µM (0.03 μM compound)	inhibition at 0.1 µM (0.1 μM compound)	Percentage inhibition of ligand binding, Adrenergic α2B (0.1 μM compound)
Cc1ccc2c(c1)c1c(n2-c2cscc2-c2ccc3c(ccn3C)c2)CCN(C)C1 [Compound 33]	102%	100%	95%	–
COc1ccc(-c2cscc2-n2c3c(c4cc(C)ccc42)CN(C)CC3)cc1 [Compound 37]	–	104%	96%	104%
Cc1csc(-c2cscc2-n2c3c(c4cc(C)ccc42)CN(C)CC3)c1 [Compound 50]	–	97%	103%	–
Cc1ccc2c(c1)c1c(n2-c2cscc2-c2ccc3cnccc3c2)CCN(C)C1 [Compound No. 68]	–	71%	86%	93%

Other lines, results leading:

Percentage inhibition of ligand binding, Adrenergic α2B (0.03 μM compound)	inhibition at 0.03 µM (0.03 μM compound)	inhibition at 0.1 µM (0.1 μM compound)	Percentage inhibition of ligand binding, Adrenergic α2B (0.1 μM compound)	SMILES
–	89%	94%	100%	Cc1ccc2c(c1)c1c(n2-c2cscc2-c2ccc(S(C)(=O)=O)cc2)CCN(C)C1 [Compound No. 76]
–	102%	104%	–	Cc1ccc2c(c1)c1c(n2-c2cscc2-c2ccc(C)s2)CCN(C)C1 [Compound No. 79]
–	89%	98%	102%	Cc1ccc2c(c1)c1c(n2-c2ccccc2-c2ccc3c(ccn3C)c2)CCN(C)C1 [Compound No. 85, 2,8-dimethyl-5-(2-(1-methyl-1H-indol-5-yl)phenyl)-2,3,4,5-tetrahydro-1H-pyrido[4,3-b]indole]
–	103%	99%	109%	Cc1ccc2c(c1)c1c(n2-c2ccccc2-c2cccn2C)CCN(C)C1 [Compound No. 100, 2,8-dimethyl-5-(2-(1-methyl-1H-pyrrol-2-yl)phenyl)-2,3,4,5-tetrahydro-1H-pyrido[4,3-b]indole]
